Patent US8541603B2, “Substituted cyclopentanes or cyclopentanones as therapeutic agents” (Allergan, Inc., priority 2008, dated 2013)

Tested on: lashes and adjacent hairs of the eyelids
Experiment: Observation of lashes of glaucoma patients treated with bimatoprost in only one eye
Assay type: in vivo
Conditions: glaucoma patient treated in one eye only
Source text: In the course of treating patients having glaucoma, treatment may only be appropriate in one eye. […] The lash appearance on the lids of the treated eyes would have appeared quite attractive if it represented a bilateral phenomenon. As a result of its asymmetric nature, the long lashes on one side could be construed as disturbing from a cosmetic standpoint. A systemic examination was preformed as a result of the asymmetric phenomenon. It soon became apparent that this altered appearance was not an isolated finding. […] Definite differences could be identified to varying degrees in the lashes and adjacent hairs of all patients who were taking the drug on a unilateral basis for longer than 6 months.
The changes in the lashes were apparent on gross inspection in several patients once attention was focused on the issue. In those with light colored hair and lashes, the differences were only seen easily with the aid of the high magnification and lighting capabilities of the slit lamp biomicroscope. In the course of glaucoma follow-up examination, attention is generally immediately focused on the eye itself. As a result of the high power magnification needed only one eye is seen at a time and the eye is seen at a high enough power that the lashes are not in focus. […]

CCNC(=O)CCC/C=C\C[C@@H]1[C@@H](/C=C/[C@@H](O)CCc2ccccc2)[C@H](O)C[C@@H]1O [bimatoprost]
lashes in the treated eye versus the non-treated eye: longer, thicker, and fuller
